Test results as given in the supplement of paper PMC10307832.

Tests used:
Experiment in all cases: relative viability (nuclei count vs DMSO), 5 days (fraction); higher = more cells survive
Irinotecan + Palbociclib = compound: CCc1c2c(nc3ccc(OC(=O)N4CCC(N5CCCCC5)CC4)cc13)-c1cc3c(c(=O)n1C2)COC(=O)[C@]3(O)CC [Irinotecan] + CC(=O)c1c(C)c2cnc(Nc3ccc(N4CCNCC4)cn3)nc2n(C2CCCC2)c1=O [Palbociclib] (partner 0.5 µM)
How it was run: (§1)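 Relative viability equals treated-well nuclei counts divided by vehicle-well nuclei counts. Counts came from 4× images of lung cancer cell lines grown in 1536-well plates for 5 days after pin-tool dosing on the day after seeding. Dosing used one drug alone or a fixed anchor-drug dose plus five library-drug doses (not always all listed) in √10 steps, and values are medians of duplicate plates.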

RU-SKI 43 + Olaparib = compound: CC[C@@H](C)CNCC(=O)N1CCC2=C([C@@H]1COC3=CC=CC(=C3)C)C=CS2 [RU-SKI 43] + O=C(c1cc(Cc2n[nH]c(=O)c3ccccc23)ccc1F)N1CCN(C(=O)C2CC2)CC1 [Olaparib] (partner 8 µM)
How it was run: as §1

MK-8033 + Decitabine = compound: Cn1cc(-c2cnc3ccc4ccc(CS(=O)(=O)NCc5ccccn5)cc4c(=O)c3c2)cn1 [MK-8033] + Nc1ncn([C@H]2C[C@H](O)[C@@H](CO)O2)c(=O)n1 [Decitabine] (partner 2 µM)
How it was run: as §1

Irinotecan + Foretinib = compound: CCc1c2c(nc3ccc(OC(=O)N4CCC(N5CCCCC5)CC4)cc13)-c1cc3c(c(=O)n1C2)COC(=O)[C@]3(O)CC [Irinotecan] + COc1cc2c(Oc3ccc(NC(=O)C4(C(=O)Nc5ccc(F)cc5)CC4)cc3F)ccnc2cc1OCCCN1CCOCC1 [Foretinib] (partner 0.25 µM)
How it was run: as §1

Cell Line	relative viability (Irinotecan + Palbociclib; first compound 0.6325 µM)	relative viability (Irinotecan + Palbociclib; first compound 2 µM)	relative viability (Irinotecan + Palbociclib; first compound 6.325 µM)	relative viability (Irinotecan + Palbociclib; first compound 20 µM)	relative viability (RU-SKI 43 + Olaparib; first compound 0.1 µM)	relative viability (RU-SKI 43 + Olaparib; first compound 0.3162 µM)	relative viability (RU-SKI 43 + Olaparib; first compound 1 µM)	relative viability (RU-SKI 43 + Olaparib; first compound 3.162 µM)	relative viability (RU-SKI 43 + Olaparib; first compound 10 µM)	relative viability (MK-8033 + Decitabine; first compound 0.02 µM)	relative viability (MK-8033 + Decitabine; first compound 0.06325 µM)	relative viability (MK-8033 + Decitabine; first compound 0.2 µM)	relative viability (MK-8033 + Decitabine; first compound 0.6325 µM)	relative viability (MK-8033 + Decitabine; first compound 2 µM)	relative viability (Irinotecan + Foretinib; first compound 0.6325 µM)	relative viability (Irinotecan + Foretinib; first compound 2 µM)	relative viability (Irinotecan + Foretinib; first compound 6.325 µM)	relative viability (Irinotecan + Foretinib; first compound 20 µM)
NCI-H1915	0.224	0.182	0.137	0.121	0.266	0.288	0.25	0.261	0.251	0.255	0.239	0.255	0.266	0.264	0.45	0.283	0.192	0.2
NCI-H1944	0.227	0.173	0.179	0.17	0.391	0.417	0.413	0.433	0.386	0.42	0.388	0.44	0.456	0.458	0.655	0.351	0.198	0.18
NCI-H1975	0.304	0.557	0.314	0.219	0.752	1	0.892	0.729	0.767	0.351	0.328	0.358	0.342	0.427	0.816	0.964	0.385	0.158
NCI-H1993	–	0.513	0.521	1.01	1.12	1.22	1.16	0.948	0.942	0.488	0.624	0.557	0.563	0.546	0.769	0.663	0.706	0.644
NCI-H2009	0.197	0.317	0.147	0.0702	0.659	0.803	0.735	0.698	0.584	0.376	0.318	0.351	0.372	0.403	0.973	0.688	0.311	0.16
NCI-H2023	0.503	0.385	0.248	0.077	0.457	0.478	0.44	0.416	0.526	0.217	0.203	0.213	0.247	0.212	0.832	0.842	0.295	0.116
NCI-H2085	0.461	0.344	0.382	0.358	0.765	0.681	0.717	0.741	0.785	0.53	0.571	0.475	0.544	0.559	1.06	0.775	0.464	0.54
NCI-H2087	0.192	0.219	0.174	0.204	0.481	0.63	0.669	0.616	0.559	0.223	0.159	0.289	0.272	0.277	0.748	0.326	0.169	0.192
NCI-H2126	0.342	0.242	0.323	0.381	0.903	1.07	0.936	0.845	0.865	0.593	0.561	0.565	0.568	0.593	–	1.18	0.67	0.51
NCI-H2170	0.356	0.248	0.159	0.143	0.587	0.683	0.599	0.61	0.59	0.461	0.405	0.458	0.479	0.468	1.01	0.616	0.252	0.214
NCI-H2342	0.557	0.486	0.509	0.495	0.387	–	0.44	0.428	0.358	0.729	0.787	0.738	0.705	0.782	1.17	0.928	0.826	0.525
NCI-H2347	0.397	0.459	0.456	0.465	0.547	0.499	0.553	0.504	0.569	0.548	0.608	0.571	0.54	0.685	0.53	0.662	0.41	0.665
NCI-H2405	–	0.547	0.305	0.143	0.835	0.885	0.905	0.855	0.842	0.776	0.703	0.67	0.701	0.746	–	0.897	0.394	0.307
NCI-H3122	0.155	0.114	0.16	0.126	0.623	0.64	0.663	0.649	0.579	0.441	0.478	0.406	0.508	0.469	0.833	0.236	0.183	0.171
PC-3 [JPC-3]	0.566	0.557	0.529	0.338	1.09	1.3	1.2	1.2	1.06	0.803	–	0.748	0.845	0.804	0.912	0.667	0.323	0.368
PC-14	0.378	0.34	0.183	0.148	0.22	0.174	0.294	0.263	0.401	0.214	0.176	0.225	0.212	0.183	0.935	0.806	0.431	0.189
RERF-LC-KJ	1.02	0.819	0.405	0.265	0.818	1.04	0.914	0.876	0.811	0.501	0.712	0.682	0.756	0.686	0.956	0.815	0.518	0.411
